In PubChem BioAssay AID1259407 (Chemical Carcinogenesis Research Information System (CCRIS), 2018):
Activity calls are given as the source filed them. No rule for the calls is given here.

Test system: CCRIS mutagenicity, Ames/micronucleus/aberration tests
Experiment: CCRIS mutagenicity studies
[1] = Test System: AMES SALMONELLA TYPHIMURIUM, Strain/Indicator: TA98, Metabolic Activation: NONE, Method: STANDARD PLATE
[2] = Test System: AMES SALMONELLA TYPHIMURIUM, Strain/Indicator: TA98, Metabolic Activation: RAT, LIVER, S-9, AROCLOR 1254, Method: STANDARD PLATE
[3] = Test System: AMES SALMONELLA TYPHIMURIUM, Strain/Indicator: TA100, Metabolic Activation: NONE, Method: STANDARD PLATE
[4] = Test System: AMES SALMONELLA TYPHIMURIUM, Strain/Indicator: TA100, Metabolic Activation: RAT, LIVER, S-9, AROCLOR 1254, Method: STANDARD PLATE
[5] = Test System: AMES SALMONELLA TYPHIMURIUM, Strain/Indicator: TA1535, Metabolic Activation: NONE, Method: STANDARD PLATE
[6] = Test System: AMES SALMONELLA TYPHIMURIUM, Strain/Indicator: TA1535, Metabolic Activation: RAT, LIVER, S-9, AROCLOR 1254, Method: STANDARD PLATE
[7] = Test System: AMES SALMONELLA TYPHIMURIUM, Strain/Indicator: TA1537, Metabolic Activation: NONE, Method: STANDARD PLATE
[8] = Test System: AMES SALMONELLA TYPHIMURIUM, Strain/Indicator: TA1537, Metabolic Activation: RAT, LIVER, S-9, AROCLOR 1254, Method: STANDARD PLATE
[9] = Test System: AMES SALMONELLA TYPHIMURIUM, Strain/Indicator: TA1538, Metabolic Activation: NONE, Method: STANDARD PLATE
[10] = Test System: AMES SALMONELLA TYPHIMURIUM, Strain/Indicator: TA1538, Metabolic Activation: RAT, LIVER, S-9, AROCLOR 1254, Method: STANDARD PLATE

CN(C)c1ccc(Cc2ccc(N(C)C)cc2)cc1
mutagenic call (Test System: AMES SALMONELLA TYPHIMURIUM, Strain/Indicator: TA98, Metabolic Activation: HAMSTER, LIVER, S-9, AROCLOR 1254, Method: STANDARD PLATE): inactive; negative
mutagenic call (Test System: AMES SALMONELLA TYPHIMURIUM, Strain/Indicator: TA98, Metabolic Activation: HAMSTER, LIVER, S-9, Method: STANDARD PLATE): inactive; negative
mutagenic call (Test System: AMES SALMONELLA TYPHIMURIUM, Strain/Indicator: TA98, Metabolic Activation: MOUSE, LIVER, S-9, Method: STANDARD PLATE): inactive; negative
mutagenic call [1]: inactive; negative
mutagenic call [2]: inactive; negative
mutagenic call (Test System: AMES SALMONELLA TYPHIMURIUM, Strain/Indicator: TA98, Metabolic Activation: RAT, LIVER, S-9, Method: STANDARD PLATE): inactive; negative
mutagenic call (Test System: AMES SALMONELLA TYPHIMURIUM, Strain/Indicator: TA100, Metabolic Activation: HAMSTER, LIVER, S-9, AROCLOR 1254, Method: STANDARD PLATE): inactive; negative
mutagenic call (Test System: AMES SALMONELLA TYPHIMURIUM, Strain/Indicator: TA100, Metabolic Activation: HAMSTER, LIVER, S-9, Method: STANDARD PLATE): inactive; negative
mutagenic call (Test System: AMES SALMONELLA TYPHIMURIUM, Strain/Indicator: TA100, Metabolic Activation: MOUSE, LIVER, S-9, Method: STANDARD PLATE): inactive; negative
mutagenic call [3]: inactive; negative
mutagenic call [4]: inactive; negative
mutagenic call (Test System: AMES SALMONELLA TYPHIMURIUM, Strain/Indicator: TA100, Metabolic Activation: RAT, LIVER, S-9, Method: STANDARD PLATE): inactive; negative
mutagenic call (Test System: AMES SALMONELLA TYPHIMURIUM, Strain/Indicator: TA1535, Metabolic Activation: HAMSTER, LIVER, S-9, AROCLOR 1254, Method: STANDARD PLATE): inactive; negative
mutagenic call (Test System: AMES SALMONELLA TYPHIMURIUM, Strain/Indicator: TA1535, Metabolic Activation: HAMSTER, LIVER, S-9, Method: STANDARD PLATE): inactive; negative
mutagenic call (Test System: AMES SALMONELLA TYPHIMURIUM, Strain/Indicator: TA1535, Metabolic Activation: MOUSE, LIVER, S-9, AROCLOR 1254, Method: STANDARD PLATE): inactive; negative
mutagenic call (Test System: AMES SALMONELLA TYPHIMURIUM, Strain/Indicator: TA1535, Metabolic Activation: MOUSE, LIVER, S-9, Method: STANDARD PLATE): inactive; negative
mutagenic call [5]: inactive; negative
mutagenic call [6]: inactive; negative
mutagenic call (Test System: AMES SALMONELLA TYPHIMURIUM, Strain/Indicator: TA1535, Metabolic Activation: RAT, LIVER, S-9, Method: STANDARD PLATE): inactive; negative
mutagenic call (Test System: AMES SALMONELLA TYPHIMURIUM, Strain/Indicator: TA1537, Metabolic Activation: HAMSTER, LIVER, S-9, AROCLOR 1254, Method: STANDARD PLATE): inactive; negative
mutagenic call (Test System: AMES SALMONELLA TYPHIMURIUM, Strain/Indicator: TA1537, Metabolic Activation: HAMSTER, LIVER, S-9, Method: STANDARD PLATE): inactive; negative
mutagenic call (Test System: AMES SALMONELLA TYPHIMURIUM, Strain/Indicator: TA1537, Metabolic Activation: MOUSE, LIVER, S-9, AROCLOR 1254, Method: STANDARD PLATE): inactive; negative
mutagenic call (Test System: AMES SALMONELLA TYPHIMURIUM, Strain/Indicator: TA1537, Metabolic Activation: MOUSE, LIVER, S-9, Method: STANDARD PLATE): inactive; negative
mutagenic call [7]: inactive; negative
mutagenic call [8]: inactive; negative
mutagenic call (Test System: AMES SALMONELLA TYPHIMURIUM, Strain/Indicator: TA1537, Metabolic Activation: RAT, LIVER, S-9, Method: STANDARD PLATE): inactive; negative
mutagenic call (Test System: AMES SALMONELLA TYPHIMURIUM, Strain/Indicator: TA1538, Metabolic Activation: HAMSTER, LIVER, S-9, Method: STANDARD PLATE): inactive; negative
mutagenic call (Test System: AMES SALMONELLA TYPHIMURIUM, Strain/Indicator: TA1538, Metabolic Activation: MOUSE, LIVER, S-9, AROCLOR 1254, Method: STANDARD PLATE): inactive; negative
mutagenic call (Test System: AMES SALMONELLA TYPHIMURIUM, Strain/Indicator: TA1538, Metabolic Activation: MOUSE, LIVER, S-9, Method: STANDARD PLATE): inactive; negative
mutagenic call [9]: inactive; negative
mutagenic call [10]: inactive; negative
mutagenic call (Test System: AMES SALMONELLA TYPHIMURIUM, Strain/Indicator: TA1538, Metabolic Activation: RAT, LIVER, S-9, Method: STANDARD PLATE): inactive; negative
mutagenic call (Test System: E. COLI, Strain/Indicator: WP2 UVRA, Metabolic Activation: HAMSTER, LIVER, S-9, AROCLOR 1254, Method: STANDARD PLATE): inactive; negative
mutagenic call (Test System: E. COLI, Strain/Indicator: WP2 UVRA, Metabolic Activation: HAMSTER, LIVER, S-9, Method: STANDARD PLATE): inactive; negative
mutagenic call (Test System: E. COLI, Strain/Indicator: WP2 UVRA, Metabolic Activation: MOUSE, LIVER, S-9, AROCLOR 1254, Method: STANDARD PLATE): inactive; negative
mutagenic call (Test System: E. COLI, Strain/Indicator: WP2 UVRA, Metabolic Activation: MOUSE, LIVER, S-9, Method: STANDARD PLATE): inactive; negative
mutagenic call (Test System: E. COLI, Strain/Indicator: WP2 UVRA, Metabolic Activation: NONE, Method: STANDARD PLATE): inactive; negative
mutagenic call (Test System: E. COLI, Strain/Indicator: WP2 UVRA, Metabolic Activation: RAT, LIVER, S-9, AROCLOR 1254, Method: STANDARD PLATE): inactive; negative
mutagenic call (Test System: E. COLI, Strain/Indicator: WP2 UVRA, Metabolic Activation: RAT, LIVER, S-9, Method: STANDARD PLATE): inactive; negative
mutagenic call (Test System: MOUSE LYMPHOMA, Strain/Indicator: L5178Y (TK+/TK-), Metabolic Activation: RAT, LIVER, S-9, AROCLOR 1254, Method: SUSPENSION/PLATE): active; positive

C=C(C)C(=O)OCCCCOC(=O)C(=C)C
mutagenic call [1]: inactive; negative
mutagenic call [2]: inactive; negative
mutagenic call (Test System: AMES SALMONELLA TYPHIMURIUM, Strain/Indicator: TA98, Metabolic Activation: RAT, LIVER, S-9, SODIUM PHENOBARBITAL, Method: STANDARD PLATE): inactive; negative
mutagenic call [3]: inactive; negative
mutagenic call [4]: inactive; negative
mutagenic call (Test System: AMES SALMONELLA TYPHIMURIUM, Strain/Indicator: TA100, Metabolic Activation: RAT, LIVER, S-9, SODIUM PHENOBARBITAL, Method: STANDARD PLATE): inactive; negative
mutagenic call [5]: inactive; negative
mutagenic call [6]: inactive; negative
mutagenic call (Test System: AMES SALMONELLA TYPHIMURIUM, Strain/Indicator: TA1535, Metabolic Activation: RAT, LIVER, S-9, SODIUM PHENOBARBITAL, Method: STANDARD PLATE): inactive; negative
mutagenic call [7]: inactive; negative
mutagenic call [8]: inactive; negative
mutagenic call (Test System: AMES SALMONELLA TYPHIMURIUM, Strain/Indicator: TA1537, Metabolic Activation: RAT, LIVER, S-9, SODIUM PHENOBARBITAL, Method: STANDARD PLATE): inactive; negative
mutagenic call [9]: inactive; negative
mutagenic call [10]: inactive; negative
mutagenic call (Test System: AMES SALMONELLA TYPHIMURIUM, Strain/Indicator: TA1538, Metabolic Activation: RAT, LIVER, S-9, SODIUM PHENOBARBITAL, Method: STANDARD PLATE): inactive; negative

COC(=O)[C@@H](C)CN=[N+]=[N-]
mutagenic call (Test System: AMES SALMONELLA TYPHIMURIUM, Strain/Indicator: TA100, Metabolic Activation: RAT, LIVER, S-9, PCB, Method: PREINCUBATION): active; positive

CN[C@@H]1[C@@H](O)[C@@H](O[C@@H]2[C@@H](O)[C@H](O[C@H]3O[C@H](CN)[C@@H](O)[C@H](O)[C@H]3O)[C@@H](N)C[C@H]2NC(=O)[C@@H](O)CN)OC[C@]1(C)O
mutagenic call (Test System: AMES SALMONELLA TYPHIMURIUM, Strain/Indicator: TA98, Metabolic Activation: NONE, Method: PREINCUBATION): inactive; negative
mutagenic call (Test System: AMES SALMONELLA TYPHIMURIUM, Strain/Indicator: TA100, Metabolic Activation: NONE, Method: PREINCUBATION): inactive; negative
mutagenic call (Test System: AMES SALMONELLA TYPHIMURIUM, Strain/Indicator: TA1535, Metabolic Activation: NONE, Method: PREINCUBATION): inactive; negative
mutagenic call (Test System: E. COLI, Strain/Indicator: WP2 UVRA, Metabolic Activation: NONE, Method: PREINCUBATION): inactive; negative
